Patent US6043212A, “Recombinant C140 receptor, its agonists and antagonists, and nucleic acids encoding the receptor” (COR Therapeutics, Inc., priority 1995, dated 2000)
Positions count from the first letter of the chain named. Peptide text beside a SMILES is read from it.

What was measured:
[1] = target: T1, wild-type mouse C140 receptor (Mus musculus, UniProt P55086); experiment: 45Ca release by Xenopus oocytes expressing wild-type mouse C140 receptor; format: cell-based
T1 construct: Native receptors were produced by cloning the coding region of the receptor gene; expressed in transfected cells; host or cells: Xenopus laevis oocytes injected with capped cRNA from pSG-5 C140
T1 sequence (P55086 32-399 limits assumed): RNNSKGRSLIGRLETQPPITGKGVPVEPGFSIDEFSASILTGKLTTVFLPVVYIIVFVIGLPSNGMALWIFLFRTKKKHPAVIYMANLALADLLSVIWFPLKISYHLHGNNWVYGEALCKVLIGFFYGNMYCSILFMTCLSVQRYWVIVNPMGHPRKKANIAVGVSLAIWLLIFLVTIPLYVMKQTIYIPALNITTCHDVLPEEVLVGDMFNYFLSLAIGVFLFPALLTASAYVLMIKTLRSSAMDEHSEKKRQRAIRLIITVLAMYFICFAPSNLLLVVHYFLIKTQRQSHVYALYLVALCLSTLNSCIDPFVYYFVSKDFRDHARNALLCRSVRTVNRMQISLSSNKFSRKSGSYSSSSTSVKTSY
Protocol: Agonist-induced increases in ^45 Ca release by oocytes expressing cRNA encoding C140 receptor or other recombinant cells producing C140 receptor are assessed by published techniques (Williams, J. A., et al., Proc Natl Acad Sci USA (1988) 85:4939-4943). Briefly, intracellular calcium pools are labeled by incubating groups of 30 oocytes in 300 μl calcium-free modified Barth's solution (MBSH) containing 50 μCi ^45 CaCl2 (10-40 mCi/mg Ca; Amersham) for 4 hours at RT. The labeled oocytes or cells are washed, then incubated in MBSH II without antibiotics for 90 minutes. Groups of 5 oocytes are selected and placed in individual wells in a 24-well tissue culture plate (Falcon 3047) containing 0.5 ml/well MBSH II without antibiotics. This medium is removed and replaced with fresh medium every 10 minutes; the harvested medium is analyzed by scintillation counting to determine ^45 Ca released by the oocytes during each 10-minute incubation. The 10-minute incubations are continued until a stable baseline of ^45 Ca release per unit time is achieved. Two additional 10-minute collections are obtained, then test medium including agonist is added and agonist-induced ^45 Ca release determined.
Oocytes from Xenopus laevis were harvested and prepared using published techniques (Coleman, A., in Hames, B. D., and Higgins, S. J., eds, Transcription and Translation: A Practical Approach, IRL Press, pp. 271-302; Williams, J. A., et al. Proc Natl Acad Sci USA (1988) 85:4939-4943]. To remove follicular cells, oocytes were incubated for 1.5 h with shaking in calcium-free Barth's containing 2 mg/ml each of collagenase 1A and hyaluronidase 1S. The oocytes were then washed five times in regular Barth's and incubated at 18° C. in Barth's medium containing 100 U/ml penicillin, 100 μg/ml streptomycin, and 2.5 mM sodium pyruvate. Stage V oocytes were selected and injected with 30 nl of cRNA (0.33 μg/μl water) or water alone, and then incubated with 0.25 ml of medium in groups of four/well in a 96-well culture plate. After 36 hours the oocytes were incubated with ^45 Ca (250 μCi/ml). After 12 h incubation the oocytes were washed and 0.2 ml of medium added and replaced every five minutes. The harvested medium was analyzed by scintillation counting. After five replacements to determine the baseline release of ^45 Ca, test medium with the agonist, e.g. SLIGRL (SEQ ID NO: 23), was added and the evoked ^45 Ca-release determined.
Oocytes were injected with capped cRNA (ca 10 ng) encoding wild-type mouse C140 receptor (WT) or either of the three mutant receptors 35Pro, 35Arg and 35His. After 36 hours, cRNA-injected and control water-injected, oocytes were loaded with ^45 Ca, and 12 hours thereafter peptide or trypsin-induced ^45 Ca release were determined as described above. The peptide SLIGRL (SEQ ID NO: 23) was added at 100 μM, and trypsin at 300 pM. The stimulation with the peptide was done on the same group of oocytes after the stimulation with trypsin. The data shown in Table 1 represent the mean of three replicate determinations, and denotes the increase compared to oocytes injected with water.
Various peptides were tested at 100 μM in the assay above using wild-type mouse C140 receptor, expressed in oocytes.

[2] = target: T2, mutant C140 receptor 35Arg (serine-35 replaced with arginine) (Mus musculus, UniProt P55086, S39R); experiment: 45Ca release by Xenopus oocytes expressing mutant C140 receptor 35Arg; format: cell-based; conditions: 35Arg receptor
T2 construct: Site-directed mutagenesis was employed to construct mutant receptors in the pSG-5; expressed in transfected cells; host or cells: Xenopus laevis oocytes injected with capped cRNA
T2 sequence (P55086 32-399 S39R limits assumed): T1 sequence (P55086 32-399 limits assumed) with S8R
Excerpt: Both native and mutant C140 receptors were produced in oocytes and activated with a peptide mimicking the new amino-terminus", or by the proteolytic enzyme trypsin (which cleaves the extracellular region). Native receptors were produced by cloning the coding region of the receptor gene, using the polymerase chain reaction, into the expression vector pSG-5 (Green, S. et al., Nucleic Acid Res (1988) 16:369). The orientation and integrity of the cloned coding region was verified by determining the nucleotide sequence with the Sanger chain-termination method. Site-directed mutagenesis was employed to construct mutant receptors in the pSG-5. […]
Oocytes from Xenopus laevis were harvested and prepared using published techniques (Coleman, A., in Hames, B. D., and Higgins, S. J., eds, Transcription and Translation: A Practical Approach, IRL Press, pp. 271-302; Williams, J. A., et al. Proc Natl Acad Sci USA (1988) 85:4939-4943]. To remove follicular cells, oocytes were incubated for 1.5 h with shaking in calcium-free Barth's containing 2 mg/ml each of collagenase 1A and hyaluronidase 1S. The oocytes were then washed five times in regular Barth's and incubated at 18° C. in Barth's medium containing 100 U/ml penicillin, 100 μg/ml streptomycin, and 2.5 mM sodium pyruvate. […] The harvested medium was analyzed by scintillation counting. […]

Molecule | Fold increase in 45Ca ([1]; Table 2, peptides at 100 μM, wild-type mouse C140 receptor in oocytes) [fold] | Fold increase in 45Ca ([1]; WT receptor, peptide at 100 μM, same oocytes after trypsin stimulation, compared to water-injected oocytes) [fold] | Fold increase in 45Ca ([2]; peptide at 100 μM, same oocytes after trypsin stimulation) [fold] | Fold increase in 45Ca ([1]; WT receptor, trypsin at 300 pM, increase compared to water-injected oocytes, mean of three) [fold] | Fold increase in 45Ca ([2]; trypsin at 300 pM, increase compared to water-injected oocytes) [fold]
CC[C@H](C)[C@H](NC(=O)[C@H](CC(C)C)NC(=O)[C@@H](N)CO)C(=O)NCC(=O)N[C@@H](CCCNC(=N)N)C(=O)N[C@@H](CC(C)C)C(=O)O [SLIGRL] (H-SLIGRL-OH) | 15 | 11 | 15 |  | 
trypsin |  |  |  | 6.6 | 0
